{
  "source": "patent US10472635B2",
  "about": "“Methods of treating brain edema” (priority 2015, dated 2019)",
  "key": {"[1]": {"system": "cortical neurons in brain slices", "experiment": "Neuronal swelling imaging assay in brain slices (cross sectional area of CoroNa-stained soma, two-photon)", "assay_type": "cell-based, rat"}, "[2]": {"system": "neuronal [Na^+]i in brain slices", "experiment": "Neuronal [Na+]i by CoroNa Green fluorescence / two-photon FLIM", "assay_type": "cell-based, rat", "details": "CoroNa signal; TTX 1 μM; DIDS 250 μM"}, "rat hippocampal slices": {"system": "rat hippocampal slices", "experiment": "LDH release cell death assay in hippocampal slices", "assay_type": "cell-based"}, "[3]": {"system": "voltage-dependent Cl^− current in layer 4 cortical neurons", "experiment": "Whole-cell voltage clamp of depolarization-activated Cl- current", "assay_type": "cell-based, rat", "details": "depolarization to −20 mV or greater; cocktail of channel blockers; GlyH-101 by dialysis", "protocol": "Electrophysiology: Whole-cell recordings were performed in the presence of antagonists of GABAA (10 μM picrotoxin), AMPA/kainite (10 μM 6-cyano-7-nitoquinoxaline-2,3-dione—CNQX), and NMDA (2R-amino-5-phosphonovaleric acid—APV) receptors. 60 μM cadmium, 50 μM nickel and 100 μM 4AP (4-aminopyridine) were used to block voltage-gated calcium channels and A-type potassium channels. Whole-cell voltage-clamp recordings from cortical neurons were carried out at room temperature while the recording chamber was perfused with ACSF at 1-1.5 ml min-1. Recordings were made using a MultiClamp 700B amplifier controlled by Clampex 10.2 via a Digidata 1440A data acquisition system with 3-5M ? glass electrodes. The pipette solution containing (in m ? ): 108 CsCl, 8 TEA-Cl, 8 NaGluc, 1 CsEGTA, 4 K-ATP, 0.3 Na-GTP, 10 Hepes, 2MgCl2 (pH 7.2 with CsOH, 286 mosmol 1-1). Normal ACSF contained (in mM): 126 NaCl, 26 NaHCO3, 10 glucose, 2 MgCl2, 1.25 NaH2PO4, 2.5 KCl, 2.0 CaCl2 (pH 7.25, 310 mosmol 1-1). NaCl was replaced with 126 mM Na-isethionate in the low-chloride ACSF. Recordings where the series resistance varied more than 10% were rejected. Data were analyzed with Clampfit 10.0.\nThe opening of Na^+ permeable channels causes both [Na^+]i accumulation and neuronal depolarization. […] However progressive accumulation of extracellular K^+ could lead to further depolarization of the membrane. […]"}, "VRAC": {"system": "VRAC", "details": "cited from earlier work"}, "Maxi-Anion Channel": {"system": "Maxi-Anion Channel", "details": "cited from earlier work"}, "SLC4-A3, A8, A10": {"system": "SLC4-A3, A8, A10", "details": "cited from earlier work"}, "SLC26A11": {"molecular_target": "T1, SLC26A11 (Homo sapiens, UniProt Q86WA9)", "T1 sequence (Q86WA9 1-606)": "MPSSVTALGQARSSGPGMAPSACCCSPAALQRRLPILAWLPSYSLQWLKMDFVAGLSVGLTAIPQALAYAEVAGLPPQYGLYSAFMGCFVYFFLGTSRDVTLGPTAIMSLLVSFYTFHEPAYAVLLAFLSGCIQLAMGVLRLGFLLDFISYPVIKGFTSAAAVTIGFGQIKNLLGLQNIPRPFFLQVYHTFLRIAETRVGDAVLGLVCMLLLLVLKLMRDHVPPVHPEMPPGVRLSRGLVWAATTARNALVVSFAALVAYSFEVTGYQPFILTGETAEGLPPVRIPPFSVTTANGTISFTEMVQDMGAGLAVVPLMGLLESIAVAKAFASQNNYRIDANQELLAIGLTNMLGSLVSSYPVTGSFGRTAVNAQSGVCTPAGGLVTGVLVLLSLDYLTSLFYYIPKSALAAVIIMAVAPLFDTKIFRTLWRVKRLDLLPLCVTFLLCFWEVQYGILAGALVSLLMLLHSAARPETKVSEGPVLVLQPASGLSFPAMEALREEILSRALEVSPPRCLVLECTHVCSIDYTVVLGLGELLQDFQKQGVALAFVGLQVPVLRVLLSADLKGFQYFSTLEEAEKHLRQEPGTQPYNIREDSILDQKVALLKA", "details": "cited from earlier work"}},
  "data": [
    {"compound": "O=S(=O)(O)c1cc(N=C=S)ccc1C=Cc1ccc(N=C=S)cc1S(=O)(=O)O", "note": "[DIDS]", "values": [
      {"measurement": "effect on veratridine-induced neuronal swelling", "setting": "[1]; 22-24 °C, antagonist bath applied and in puffing pipette, DIDS 250 μM, NPPB 200 μM, TTX 1 μM", "result": "reduced the swelling"},
      {"measurement": "effect on veratridine-stimulated neuronal swelling at 37 °C", "setting": "[1]; 37 °C, Calcein green-AM", "result": "block"},
      {"measurement": "effect on NMDA-induced neuronal swelling", "setting": "[1]; DIDS 250 μM, 500 μM, 1 mM, d-APV 100 μM", "result": "blocked NMDA-evoked neuronal swelling in a dose-dependent manner"},
      {"measurement": "effect on veratridine-induced [Na+]i increase", "setting": "[2]", "result": "not affected"},
      {"measurement": "effect on veratridine-induced cell death (LDH release)", "setting": "rat hippocampal slices; 50 μM veratridine", "result": "prevented cell death"},
      {"measurement": "effect on NMDA-induced cell death (LDH release), Ca2+-independent", "setting": "rat hippocampal slices; NMDA in Ca2+ free extracellular solution", "result": "blocked"},
      {"measurement": "effect on NMDA-induced cell death (LDH release), Ca2+-dependent", "setting": "rat hippocampal slices; NMDA with extracellular Ca2+ present, reduced extracellular Na+", "result": "not blocked"},
      {"measurement": "effect on non-inactivating Cl- current elicited by depolarization", "setting": "[3]", "result": "blocked"},
      {"measurement": "concentration (antagonist sensitivity of channel/transporter)", "setting": "VRAC", "result": "100 to 400", "unit": "µM"},
      {"measurement": "concentration (antagonist sensitivity of channel/transporter)", "setting": "Maxi-Anion Channel", "result": 100, "unit": "µM"},
      {"measurement": "concentration (antagonist sensitivity of channel/transporter)", "setting": "SLC4-A3, A8, A10", "result": "0.1 to 0.5", "unit": "mM"},
      {"measurement": "concentration (antagonist sensitivity of channel/transporter)", "setting": "SLC26A11", "result": "0.5 to 1", "unit": "mM"}
    ]}
  ]
}
